{"source": "patent US20080306166A1", "about": "“Compositions and Methods For Treatment of Disorders of Protein Aggregation” (priority 2004, published 2008)", "key": {"[1]": {"system": "TgCRND8 mice", "experiment": "Morris Water Maze spatial reference memory test in TgCRND8 mice", "assay_type": "in vivo, mouse", "method": "Mice. […] This initial dosage was chosen based upon the dosage of myo-cyclohexanehexyl (6-18 grams/day/adult or 86-257 mg/Kg/day) that is typically administered to human patients for various psychiatric disorders. […] A cohort of animals (n=10 mice per treatment arm) entered the study at five months of age, and outcomes were then analyzed after one month of treatment. The body weight, coat characteristics and in cage behaviour were monitored. Mannitol was used as a negative control for potential alterations in caloric intake. All experiments were performed according to the Canadian Council on Animal Care guidelines. Behavioural tests: Morris Water Maze testing was performed as previously described. After non-spatial pre-training, mice underwent place discrimination training for 5 days with 4-trials per day, followed by a cued visible platform to rule out general motivational, learning deficits and motor problems, and a probe trial to evaluate memory. […] Open field test for motor activity was preformed as described previously. Duration of walking, pausing and grooming were analyzed as indices of spontaneous locomotor activity. Sensorimotor function was examined with an Economex™ accelerating rotarod (Columbus Instruments, Columbus, Ohio), as described elsewhere. The rod was set to accelerate at a rate of 0.2 r.p.m./s, from an initial, constant speed of 5 r.p.m. Latency to fall was recorded in four daily trials, conducted at 30 min intervals. All mice were trained for seven days before testing. The test day performance score for each animal was obtained by summing its latency to fall over the four trials. Cerebral amyloid burden. Brains were removed and one hemisphere was fixed in 4% paraformaldehyde and embedded in paraffin wax in the mid sagittal plane. To generate sets of systematic uniform random sections, 5 μm serial sections were collected across the entire hemisphere. Sets of sections at 50 μm intervals were used for analyses (10-14 sections/set). Plaques were identified after antigen retrieval with formic acid, and incubation with primary anti-AD antibody (Dako M-0872), followed by secondary antibody (Dako StreptABCcomplex/horseradish kit). End products were visualized with DAB and were counter-stained with luxol fast blue. Amyloid plaque burden was assessed with Leco IA-3001 image analysis software interfaced with Leica microscope and Hitachi KP-M1U CCD video camera. Openlab imaging software (Improvision, Lexington, Mass.) was then used to convert micrographs to binary images for plaque number and plaque area determinations. Vascular amyloid burden was defined as amyloid originating from or surrounding blood vessels and was analysed similarly. Plasma and Cerebral Aβ Content. Hemi-brain samples were homogenized in a buffered sucrose solution, followed by either 0.4% diethylamine/100 mM NaCl for soluble Aβ levels or cold formic acid for the isolation of total Aβ. After neutralization, the samples were diluted and analyzed for Aβ40 and Aβ42 using commercially available kits (BIOSOURCE International). Each hemisphere was analyzed intriplicate and the mean values ±SEM reported. Western blot analyses were performed on all fractions using urea gels for Aβ species analyses. Aβ was detected using 6E10 (BIOSOURCE International) and Enhanced Chemiluminenscence (Amersham). Gliosis Quantitation. Five randomly selected, evenly spaced, sagittal sections were collected from paraformaldehyde-fixed and frozen hemispheres of treated and control mice. […]"}, "[2]": {"system": "TgCRND8 mice", "experiment": "Cerebral amyloid plaque burden (anti-Aβ immunostaining, image analysis)", "assay_type": "in vivo, mouse", "settings": "TgCRND8 mice", "method": "Mice. […] This initial dosage was chosen based upon the dosage of myo-cyclohexanehexyl (6-18 grams/day/adult or 86-257 mg/Kg/day) that is typically administered to human patients for various psychiatric disorders. […] A cohort of animals (n=10 mice per treatment arm) entered the study at five months of age, and outcomes were then analyzed after one month of treatment. The body weight, coat characteristics and in cage behaviour were monitored. Mannitol was used as a negative control for potential alterations in caloric intake. All experiments were performed according to the Canadian Council on Animal Care guidelines. Behavioural tests: Morris Water Maze testing was performed as previously described. After non-spatial pre-training, mice underwent place discrimination training for 5 days with 4-trials per day, followed by a cued visible platform to rule out general motivational, learning deficits and motor problems, and a probe trial to evaluate memory. […] Open field test for motor activity was preformed as described previously. Duration of walking, pausing and grooming were analyzed as indices of spontaneous locomotor activity. Sensorimotor function was examined with an Economex™ accelerating rotarod (Columbus Instruments, Columbus, Ohio), as described elsewhere. The rod was set to accelerate at a rate of 0.2 r.p.m./s, from an initial, constant speed of 5 r.p.m. Latency to fall was recorded in four daily trials, conducted at 30 min intervals. All mice were trained for seven days before testing. The test day performance score for each animal was obtained by summing its latency to fall over the four trials. Cerebral amyloid burden. Brains were removed and one hemisphere was fixed in 4% paraformaldehyde and embedded in paraffin wax in the mid sagittal plane. To generate sets of systematic uniform random sections, 5 μm serial sections were collected across the entire hemisphere. Sets of sections at 50 μm intervals were used for analyses (10-14 sections/set). Plaques were identified after antigen retrieval with formic acid, and incubation with primary anti-AD antibody (Dako M-0872), followed by secondary antibody (Dako StreptABCcomplex/horseradish kit). End products were visualized with DAB and were counter-stained with luxol fast blue. Amyloid plaque burden was assessed with Leco IA-3001 image analysis software interfaced with Leica microscope and Hitachi KP-M1U CCD video camera. Openlab imaging software (Improvision, Lexington, Mass.) was then used to convert micrographs to binary images for plaque number and plaque area determinations. Vascular amyloid burden was defined as amyloid originating from or surrounding blood vessels and was analysed similarly. Plasma and Cerebral Aβ Content. Hemi-brain samples were homogenized in a buffered sucrose solution, followed by either 0.4% diethylamine/100 mM NaCl for soluble Aβ levels or cold formic acid for the isolation of total Aβ. After neutralization, the samples were diluted and analyzed for Aβ40 and Aβ42 using commercially available kits (BIOSOURCE International). Each hemisphere was analyzed intriplicate and the mean values ±SEM reported. Western blot analyses were performed on all fractions using urea gels for Aβ species analyses. Aβ was detected using 6E10 (BIOSOURCE International) and Enhanced Chemiluminenscence (Amersham). Gliosis Quantitation. Five randomly selected, evenly spaced, sagittal sections were collected from paraformaldehyde-fixed and frozen hemispheres of treated and control mice. Sections were immunolabelled for astrocytes with anti-rat GFAP IgG2a, (Dako; diluted 1:50) and for microglia with anti-rat CD68 IgG2b (Dako; 1:50)."}, "[3]": {"target": "T1, Aβ42 (Homo sapiens, UniProt P05067)", "T1 construct": "analyzed for Aβ40 and Aβ42 using commercially available kits; from tissue; host or cells: TgCRND8 transgenic mice: hemi-brain (A3) and plasma (A5)", "T1 sequence (P05067 672-713)": "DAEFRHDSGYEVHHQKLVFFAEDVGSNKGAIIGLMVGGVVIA", "experiment": "Plasma Aβ42 levels", "assay_type": "in vivo, mouse", "settings": "TgCRND8 mice, 28 days of therapy at five months of age", "method": "(§1) Mice. […] This initial dosage was chosen based upon the dosage of myo-cyclohexanehexyl (6-18 grams/day/adult or 86-257 mg/Kg/day) that is typically administered to human patients for various psychiatric disorders. […] A cohort of animals (n=10 mice per treatment arm) entered the study at five months of age, and outcomes were then analyzed after one month of treatment. The body weight, coat characteristics and in cage behaviour were monitored. Mannitol was used as a negative control for potential alterations in caloric intake. All experiments were performed according to the Canadian Council on Animal Care guidelines. Behavioural tests: Morris Water Maze testing was performed as previously described. […] Duration of walking, pausing and grooming were analyzed as indices of spontaneous locomotor activity. […] Latency to fall was recorded in four daily trials, conducted at 30 min intervals. […] Amyloid plaque burden was assessed with Leco IA-3001 image analysis software interfaced with Leica microscope and Hitachi KP-M1U CCD video camera. […] Vascular amyloid burden was defined as amyloid originating from or surrounding blood vessels and was analysed similarly. […] After neutralization, the samples were diluted and analyzed for Aβ40 and Aβ42 using commercially available kits (BIOSOURCE International). Each hemisphere was analyzed intriplicate and the mean values ±SEM reported. […] Gliosis Quantitation. […]"}, "[4]": {"system": "TgCRND8 mice", "settings": "mouse, in vivo", "method": "as §1"}, "[5]": {"system": "Aβ oligomers", "experiment": "IP/Western blot of Aβ oligomers in 7PA2 conditioned medium", "assay_type": "cell-based, human", "method": "(§2) Preparation of conditioned media: CHO— or 7PA2 cells were grown to ˜90% confluency. The cells were washed 1× in serum-free DMEM, then incubated overnight (˜15 hrs) in 4 ml/10 cm dish in serum-free DMEM, pen/strep, 1-glutamine with/without AZD-103. The following day, the conditioned media (CM) was collected, spun at 1000×g and treated with complete protease inhibitors (in mg/ml 1 leupeptin, 1 pepstatin, 0.1 aprotinin, 40 EDTA, and 2 mM 1/10 phenantroline) for biochemistry experiments or cell culture compatible protease inhibitors (Sigma P1860 1:1000) for electrophysiology experiments. The CM was stored at −80° C. until sufficient volumes were collected to complete a “batch”—typically ˜300 ml. […] The resulting concentrate was pooled, aliquoted in 1 ml fractions, and stored at −80° C. […] Therefore, for any given set of experiments (i.e. dose response curve, time curve, etc), a single batch is prepared and compared to 7PA2 alone within that batch.\nIP/Western blots: 8 ml of 7PA2 CM were precleared with 40 μl of protein A agarose for 30 min. The beads were spun down, and […] of the polyclonal anti-Aβ antibody R1282 was added to the supernatant with an additional 40 μl of protein A agarose. These samples were nutated at 4° C. overnight. The beads were washed with a series of buffers 0.5 STEN (sodium chloride, tris, EDTA, NP-40), SDS STEN, STEN. 2× tricine sample buffer was added to the washed beads, which were then boiled, centrifuged, and the resulting supernatant loaded onto 10-20% tricine gels. The proteins were then transferred to nitrocellulose, and probed with the anti-Aβ antibody 6E10."}, "[6]": {"system": "7PA2 cells", "experiment": "Toxicity observations in 7PA2 cells and LTP controls", "assay_type": "cell-based, Chinese Hamster", "settings": "APPs expression, LTP in CHO-/AZD-103 conditions", "method": "as §2"}, "[7]": {"system": "TgCRND8 mice", "experiment": "Two-month treatment of TgCRND8 mice, cognition and pathology", "assay_type": "in vivo, mouse", "settings": "TgCRND8 mice treated for 2 months, ending at 7 months of age", "method": "Scyllo-inositol was also administered to […]8 mice for 2 months, ending at 7 months of age."}, "[8]": {"settings": "six month old TgCRND8 mice, 28 days treatment from 5 months"}, "[9]": {"settings": "28 day course at 5 months of age, vs untreated"}, "[10]": {"settings": "oral, 28 days from 5 months of age, 6 months of age, listed as Scyllo-cyclohexanehexol"}}, "note": "“Also recorded” adds a separate entry of the source. Marks after values point to notes of the source that are not given here."}
{"smiles": "OC1C(O)C(O)C(O)C(O)C1O", "note": "(stereo not drawn) [scyllo-cyclohexanehexyl, 1,3,5/2,4,6-(scyllo-) cyclohexanehexyl]", "values": [{"measurement": "probe trial, % time in target quadrant", "setting": "[1]; separate cohort of treated TgCRND8 mice vs non-Tg littermates", "value": "not statistically different from non-Tg littermates"}, {"measurement": "spatial learning performance compared to non-Tg littermates", "setting": "[1]; [8]", "value": "indistinguishable from that of their non-Tg littermates"}, {"measurement": "spatial learning performance compared to untreated TgCRND8 littermates", "setting": "[1]; [8]", "value": "significantly better behavioural performance compared to untreated TgCRND8 mice; also recorded: significantly better than untreated TgCRND8 littermates"}, {"measurement": "percent area of the brain covered by plaques, reduction", "setting": "[2]; [9]", "value": "14±0.5", "unit": "%"}, {"measurement": "plaque number reduction", "setting": "[2]; [9]", "value": "13±0.3", "unit": "%"}, {"measurement": "plaque size reduction", "setting": "[2]; [9]", "value": "16±0.4", "unit": "%"}, {"measurement": "plaque burden in the hippocampus", "setting": "[2]; one month of treatment, anti-Aβ antibody staining", "value": "lower plaque burden"}, {"measurement": "Mean Plaque Size", "setting": "[2]; [10]", "value": "336 ± 6* μm^2"}, {"measurement": "Total Plaque Area", "setting": "[2]; [10]", "value": "420027 ± 14986* μm^2"}, {"measurement": "Total Plaque Count", "setting": "[2]; [10]", "value": "1260 ± 27"}, {"measurement": "Plasma Aβ42 levels", "setting": "[3]", "value": "990 ± 73", "unit": "pg/mL"}, {"measurement": "grooming or activity in the open field test", "setting": "[4]", "value": "no effect on grooming or activity"}, {"measurement": "sensorimotor function, Rotarod", "setting": "[4]", "value": "no difference"}, {"measurement": "Aβ dimer on Western blots", "setting": "[5]; applied to 7PA2 CM (post-cond)", "value": "seemed unaffected"}, {"measurement": "Aβ trimer on Western blots", "setting": "[5]; applied to 7PA2 CM (post-cond), 1.25 μM", "value": "reduced the detectability of the Aβ trimer"}, {"measurement": "Aβ dimer and trimer levels, dose response by Western blot", "setting": "[5]; pre-cond and post-cond, measured absolutely and normalized to monomer", "value": "appeared to reduce dimer and trimer levels"}, {"measurement": "toxicity", "setting": "[6]", "value": "No direct evidence of AZD-103 toxicity"}, {"measurement": "effects on cognition and pathology", "setting": "[7]", "value": "Sustained effects both on cognition and pathology were observed"}]}
